Holding throughout (experiment): minimum inhibitory concentration
Type in all cases: cell-based

The subject of one test is Proteus vulgaris X.
Test [1] relates to Escherichia coli NTCT 10418.
Test [2] concerns Staphylococcus aureus ATCC 25923.
In test [3] the test system is Streptococcus pyogenes 421.

`C/C(=C\C(=O)OCCCCCCCCC(=O)O)C[C@@H]1OC[C@H](C[C@@H]2O[C@H]2[C@@H](C)[C@H](C)O)[C@@H](O)[C@H]1O` [Mupirocin]: the “Minimum inhibitory concentration (MIC) Proteus vulgaris X” value with Proteus vulgaris X is 64. Moreover, the “Minimum inhibitory concentration (MIC) Escherichia coli NTCT 10418” value in test [1] is recorded as 128. Also, the “Minimum inhibitory concentration (MIC) Staphylococcus aureus ATCC 25923” value in test [2] turned out to be 0.25. For the same compound, the “Minimum inhibitory concentration (MIC) Streptococcus pyogenes 421” value in test [3] was determined as 0.12.
